Results from patent US4835185A, “Immunomodulator for improving commercial performance of domestic animals” (Iowa State University Research Foundation, Inc., priority 1987, dated 1989).

Key:
[1] = set-up: species or system pigs; details: pig, in vivo
From the text: (§1) In experiment 1, sixteen female pigs weighing 20-30 kg were used. Seven days before study, catheters were surgically placed in the right atria for blood sampling. Animals were housed in individual cages during the recovery period and had free access to water. Preceding the experiment, animals were fed twice daily a basal diet (2% of body weight per feeding). The basal diet consisted of a corn-soybean mix, adequate in all minerals and vitamins and containing approximately 14% crude protein. Test meals were formulated by additions to a basal diet. Five animals received the basal diet (control); five animals received the leucine meal, which had 2% leucine added to the basal diet; and six animals received the KIC diet, which had 2% KIC (sodium salt equivalent to 1.7% free acid) added to the basel diet. Studies were begun between 0800 and 0900 h after a 24-hr fast. Basal blood samples were taken at -20, -10 and -5 min. Animals were then offered 100 g of their respective test meal (time 0). Pigs were included in the study only if they consumed the entire meal in the first 20 min. Blood was sampled every 30 min from 120 to 240 min. Plasma was separated, Trasylol (FBA Pharmaceuticals, New York, NY) added (50 ul/ml), and plasma stored at -70 C. until analyzed.
(§2) Cortisol was measured by coated tube kits (Gammacoat, Travenol-Genetech Diagnostics, Cambridge, MA). Leucine and KIC were measured by high pressure liquid chromatography. Crystalline leucine was obtained from Sigma Chemical (St. Louis, MO) and KIC-sodium was obtained from SOBAC (Paris, France). Statistical analysis of the individual pig responses was conducted on mean plasma concentrations before the meal (-20 to 0 min) and after the meal (120 to 240 min). When the overall treatment F-value was significant, differences between individual treatments were determined using the pooled SEM and a T-test.

plasma cortisol = experiment: Plasma cortisol in pigs after test meals; format: in vivo
Protocol: To determine if KIC could acutely alter cortisol concentrations, young pigs were fed meals supplemented with leucine or KIC and plasma cortisol was measured.
as §1, with “Blood was sampled every 30 min from 120 to 240 min.” left out
as §2

[2] = Feeding of calcium versus sodium KIC to ruminants; format: in vivo, ruminants such as cattle and sheep
[3] = Water solubility of KIC salts; format: physicochemical; details: vs ammonium and alkali metal salts

Plasma KIC, Change [1] [µM] | Plasma leucine, Change [1] [µM] | increase of plasma leucine concentration [1] [fold] | Plasma KIC, Post ([1]; 240 min) [µM] | Plasma leucine, Post ([1]; 240 min) [µM] | SMILES | Plasma cortisol, Change (plasma cortisol; 2% in meal, control -0.09) [µg/dL] | Plasma cortisol, Post (plasma cortisol; 2% in meal, pre: leucine 2.8, KIC 4.7, pooled SEM 0.49) [µg/dL] | change in plasma cortisol (plasma cortisol; 2% leucine in meal, nonsignificant) [%] | effectiveness relative to sodium salt [2] | water solubility [3]
66 | 518 | 4 | 90 | 664 | CC(C)C[C@H](N)C(=O)O [leucine, reference compound] | -0.48 | 2.4 | -14 | – | –
– | – | – | – | – | CC(C)CC(=O)C(=O)O [Ca-KIC] | – | – | – | generally comparably effective with the sodium salt | less water-soluble
